The values that follow come from publication PMC6872687, “Potential for imaging the high-affinity state of the 5-HT1B receptor: a comparison of three PET radioligands with differing intrinsic activity” (EJNMMI Research, 2019).

For data set [1], the target named is T1, 5-HT1B receptor (Homo sapiens, UniProt P28222). Nature of the data set: GTPγ35S binding assay for EC50 and intrinsic activity (agonist/antagonist efficacy). It is filed as biochemical. To be noted: data provided by AstraZeneca; for Antagonist effect / Agonist effect: measured at 10 μM. As for the experimental part:
EC50 values and intrinsic activity (antagonist/agonist efficacy) were measured by comparing 5-HT1B receptor ability to bind GTPγ^35S when stimulated with 5-HT. The agonist/antagonist effect (percentage) was measured at 10 μM and EC50 in a range from 10 μM to 170 pM. EC50 was determined as the concentration at half the maximum of the dose-response curve.
A general note: GTPγS is a poorly hydrolysed GTP analogue; its binding reports G protein activation.

A short description of data set [2]: logD (in vitro data, Fig. 1). The format is physicochemical. To be noted: data provided by AstraZeneca.
For data set [3], the target named is T1, 5-HT1B receptor. The data set can be described thus: 5-HT1B receptor affinity (in vitro data, Fig. 1). The format is binding. To be noted: data provided by AstraZeneca.
The test system of data set [4] is 5-HT1B receptor. Nature of the data set: PET displacement by fenfluramine-induced endogenous 5-HT release in NHP brain. It is filed as in vivo, cynomolgus monkey. To be noted: for Specific binding (45-123 min) in the occipital cortex: baseline PET. As for the experimental part:
(§1) Three female cynomolgus monkeys were supplied by Astrid Fagraeus Laboratory at the Karolinska Institutet (Solna, Sweden). Anesthesia was initiated via intramuscular injection of ketamine hydrochloride (ca. 10 mg/kg) and after, intubation was maintained by the administration of a mixture of sevoflurane, oxygen, and medical air.
(§2) The NHPs were observed continuously during the days of PET measurements. Body temperature was maintained by Bair Hugger-Model 505 (Arizant Healthcare Inc., MN) and monitored with an esophageal thermometer. Heart rate, blood pressure, respiratory rate, and oxygen saturation were continuously monitored throughout the experiments. Fluid balance was maintained by a continuous infusion of saline. The NHP head was fixed in position throughout PET data acquisition as described previously. PET measurements were conducted using a high-resolution research tomograph (Siemens). Radioactivity in the brain was measured continuously for 123 min after radioligand injection according to a preprogrammed series of 34 frames.
PET measurements using fenfluramine to evaluate the sensitivity of [^11C]1 and [^11C]3 towards endogenous 5-HT release followed an identical procedure for two NHPs (weight 6.8 and 7.0 kg). Each NHP was used in a baseline and a displacement PET measurement with intravenous infusion of fenfluramine over 5 min starting 15 min after injection of the same radioligand as used in the baseline measurement. The dose of fenfluramine was 1 mg/kg (i.v.) for both radioligands and 5 mg/kg (i.v.) for [^11C]3 only. After an unexpected complication, the study was limited to be concluded only at the lower dose level. In summary, results for [^11C]1 were acquired from this study (1 mg/kg of fenfluramine) and from Lindberg et al. (5.0 mg/kg of fenfluramine), [15] results for [^11C]2 were exclusively acquired from Finnema et al., and all results for [^11C]3 were acquired from this study. The experimental procedure in this study was designed to replicate the procedure described by Finnema et al..
(§3) Average PET images were manually co-registered to a T1-weighted brain magnetic resonance (MR) image previously obtained for each monkey. The co-registration parameters were applied to the dynamic PET data. Regions of interest (ROI) were delineated manually for the whole brain, occipital cortex, globus pallidus, caudate nucleus, putamen, ventral striatum (nucleus accumbens), cerebellum, frontal cortex, midbrain, thalamus, and hippocampus. Regional radioactivity was expressed as standardized uptake value (SUV), which was calculated as uptake (becquerels/milliliter)/injected radioactivity (becquerels) × body weight (grams).
(§4) The cerebellum was used as a reference region because this region has negligible density of 5-HT1B receptors. Specific binding to the 5-HT1B receptor was defined as the difference between the total radioactivity concentration in the target brain region and that in the cerebellum, each using the area under the time-radioactivity curve for the scan interval 45–123 min. The binding potential (BPND) was defined as the ratio of specific binding to the radioactivity concentration in the cerebellum, calculated by simplified reference tissue model (SRTM).

In data set [5] the test system is 5-HT1B receptor. More on the design: method as in PMID 20222157. Particulars: baseline PET; results for [11C]2 acquired from Finnema et al.; cited from earlier work.
In data set [6] the test system is 5-HT1B receptor. Nature of the data set: PET baseline and AR-A000002 pretreatment measurement of specific binding in NHP brain. The format is in vivo, cynomolgus monkey. On the procedure: as §1, §2
In an initial PET study to evaluate the specific binding of [^11C]3, one NHP (weight 6.9 kg) was used in a baseline measurement. This monkey was also used in a pretreatment paradigm in which the 5-HT1B antagonist AR-A000002 (AZ10419427; 2.0 mg/kg) was intravenously infused over 6 min starting at 30 min before radioligand injection.
as §3, §4

Where [7] appears, read: fenfluramine 1.0 mg/kg i.v. 15 min after radioligand, 45-123 min, individual monkeys.
Setting [8] is: fenfluramine 1.0 mg/kg i.v., 45-123 min.
Where [9] appears, read: fenfluramine 1.0 mg/kg i.v., individual monkeys.
Setting [10] is: AR-A000002 2.0 mg/kg i.v. pretreatment vs baseline.
Setting [11] is: after pretreatment with AR-A000002 2.0 mg/kg i.v.
Setting [12] is: fenfluramine 5.0 mg/kg, 45-123 min.

“And” between values parts separate entries of the source, which are not always exact repeats. Equal values may be shown once. Read-outs that look alike come from different tables or passages of the source.

T1 sequence (P28222 whole entry): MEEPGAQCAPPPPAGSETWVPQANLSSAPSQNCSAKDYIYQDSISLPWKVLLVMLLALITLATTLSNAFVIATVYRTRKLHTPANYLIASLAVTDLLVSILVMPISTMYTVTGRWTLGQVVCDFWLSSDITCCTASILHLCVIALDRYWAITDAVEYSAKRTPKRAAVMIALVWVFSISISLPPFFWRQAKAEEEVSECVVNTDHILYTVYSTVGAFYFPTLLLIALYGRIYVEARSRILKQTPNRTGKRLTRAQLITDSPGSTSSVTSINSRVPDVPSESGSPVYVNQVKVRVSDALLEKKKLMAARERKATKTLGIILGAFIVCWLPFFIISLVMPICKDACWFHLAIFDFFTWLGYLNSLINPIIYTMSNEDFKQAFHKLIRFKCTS

As a reminder, the logD is the decadic logarithm of the distribution of all forms, ionised or not, between an organic phase and buffer at a given pH. The Ki is a measure of affinity in units of concentration, obtained from inhibition or displacement. `[11CH3]N1CCN(c2cc(F)cc3c(=O)cc(C(=O)Nc4ccc(N5CCOCC5)c(F)c4)oc23)CC1` [[^11C]1] returned an Antagonist effect in data set [1] of 190%. In addition, the logD in data set [2] was 2.3. In data set [3], this compound displayed a Ki of 0.13 nM. Further, in data set [4], the “Specific binding (45-123 min) in the occipital cortex” value (“Specific binding (45-123 min)” below) is 3.2. Besides, in data set [4] (setting [7]), the “Decrease in specific binding, occipital cortex” value (“Decrease … occipital cortex” for short) is listed as 19%. In addition, in data set [4] (setting [8]), the “Reduction in specific binding, midbrain” value was determined as 2% and the “Reduction in specific binding, thalamus” value worked out at 33%. The “Displacement (decrease in specific binding), globus pallidus” value in data set [4] (setting [9]) was 3% and 9%.
`Cc1ccc(N2CCN([11CH3])CC2)c2oc(C(=O)Nc3ccc(N4CCOCC4)cc3)cc(=O)c12` [[^11C]2]: in data set [1], the Agonist effect is on record as 53.2% and the Antagonist effect is recorded as 48%. The compound further came in with a logD in data set [2] of 1.3. In data set [3], this compound displayed a Ki of 0.4 nM. In data set [5], the “Specific binding (45-123 min)” value is given as 1.9.
The term EC50 denotes the concentration giving half of the maximal effect. `[11CH3]N1CCN(c2cccc3c2O[C@H](C(=O)Nc2ccc(N4CCOCC4)cc2)CC3)CC1` [[^11C]3]: in data set [6] (setting [10]), the “Reduction of BPND, globus pallidus” value amounted to 52% and the “Reduction of BPND, occipital cortex” value is 90%. In addition, in data set [6] (setting [11]), the “BPND, globus pallidus” value worked out at 0.23 and the “BPND, occipital cortex” value is 0.07. Moreover, in data set [6] (baseline), the “BPND (SRTM), globus pallidus” value is on record as 0.48 and the “BPND (SRTM), occipital cortex” value stood at 0.7. Also, in data set [6] (baseline PET, i.v., one monkey), the “Maximum radioactivity in the whole brain” value is on record as 2.5 SUV and the “Time of maximum whole brain radioactivity” value was 10 min. Moreover, in data set [1], the Agonist effect came out at 77.1% and the Antagonist effect is on record as 18%. The compound further gave an EC50 in data set [1] (range 10 μM to 170 pM) of 0.97 nM. In addition, the logD in data set [2] amounted to 1.5. Moreover, in data set [3], the inhibition constant Ki was 0.6 nM. Besides, the “Specific binding (45-123 min)” value in data set [4] was determined as 0.9. Also, in data set [4] (setting [7]), the “Decrease … occipital cortex” value is 16% and 27%. Besides, in data set [4] (setting [9]), the “Displacement (decrease in specific binding), globus pallidus” value is 4% and 11%. Moreover, the “Decrease … occipital cortex” value in data set [4] (fenfluramine 5.0 mg/kg i.v. 15 min after radioligand, 45-123 min, individual monkeys) is 61% and 62%. In data set [4] (setting [12]), the “Reduction in specific binding, frontal cortex” value is listed as 68% and the “Reduction in specific binding, hippocampus” value came to 34%. Also, the “Displacement, globus pallidus” value in data set [4] (fenfluramine 5.0 mg/kg, individual monkeys) was 35% and 49%.
